Laboratory results published in patent US6391324B1, “Cosmetic skin care compositions containing pulegone” (Unilever Home & Personal Care USA, Division of Conopco, priority 2000, dated 2002).

Columns and labels:
Type in all cases: cell-based
[1] = test system: human keratinocytes; experiment: Lipid Analysis (ceramides expression); details: for CERAMIDES % of CONTROL / CERAMIDES (ng/μg PROTEIN ± S.D.): three days
Experimental: (§1) Normal human keratinocytes, isolated from neonatal foreskin by trypsin treatment, were grown in Dulbecco's Modified Eagle's Medium (DMEM, Life Technologies, Grand Island, N.Y.) with 10% fetal bovine serum in the presence of irradiated mouse fibroblasts for establishing dividing keratinocyte colonies. Cells were incubated until their second passage and stored at −70° C. for future use. All incubations took place at 37° C. with 5% CO2. Frozen second passage keratinocytes were thawed and plated in T-175 flasks (Corning, Corning, N.Y.) with DMEM and grown for five days. After reaching 80% confluence, they were trypsinized and seeded into 6-well plates containing keratinocyte growth medium (KGM, Clonetics, San Diego, Calif.) with 0.15 mM calcium.
A sample of the keratinocytes that were grown in the keratinocyte culture described above were placed in KGM (2 ml per well) at 0.2 million per 6-well plates and re-grown for five days until approximately 20% confluence was reached. Cells were fed and treated with pulegone as described above for the TG-1 Assay. After three days of treatment, cells were rinsed twice with PBS, then harvested by adding 3 ml of 0.1 N NaOH (Fisher) to each well and scraping with a rubber policeman. The supernatants were transferred to 16 mm×100 mm glass test tubes with teflon-coated caps and incubated for 1 hour at 70° C. After cooling to room temperature, a 50 μl aliquot was removed for protein determination (Pierce BCA assay, Rockford, Ill.). To each tube 320 μl of 1 N HCl and 2.5 ml of chloroform were added and the tubes mixed well. The tubes were then placed on a tumbler and agitated for thirty minutes. The mixtures were then centrifuged for 10 minutes at 2000×g. 2 mL of chloroform were removed from the organic phase and placed in an autosampler vial. The samples were then dried evaporated under N2, resuspended in 60 μl of chloroform:methanol 2:1 and transferred to an autosampler insert microtube which was placed inside another autosampler vial whcih was sealed. 40 μl of the sample was spotted (Camag Automatic TLC Sampler III, Wilmington, N.C.) on silica TLC plates (Whatman 4807-700) and the plates were developed in horizontal chambers (Camag) using the following solvent system: 1. 95:4.5:0.5 chloroform, methanol, acetic acid and 2. 60:40:2 hexane, ethyl ether, acetic acid. Following immersion in 10% copper sulfate in 8% phosphoric acid, plates were charred at 165° C. for 20 minutes and then read in a densitometer (Camag TLC Scanner II). The results were expressed in ng cermaides/μg protein.
(§2) Concentrations used in the examples below are of pulegone in a corn oil droplet. The in vitro concentration may not be relevant to in vivo concentration because there is partitioning between the oil and the culture medium. The medium concentration of the active is not the oil droplet concentration of the active. For the pulegone to elicit its effect on the cultured cells, it must diffuse out of the corn oil into the culture medium where it is then accessible to the cells. The pulegone concentration in the culture medium is therefore considerably less than the concentration in the corn oil droplet.

[2] = test system: human keratinocytes; experiment: Glucose Uptake Assay (3H 2-deoxy-glucose); details: for GLUCOSE UPTAKE % of CONTROL / GLUCOSE UPTAKE (cpm/μg PROTEIN ± S.D.): 4 hours preincubation
Experimental: as §1
A sample of the keratinocytes grown in the keratinocyte culture described above, were plated in KGM medium at either 0.5 or 1 million cells/plate in six well plates and incubated for 4 days. The medium was then aspirated, and the wells were rinsed twice with Phosphate Buffered Saline (PBS), then the plates were incubated (1 mL/well) for 24 hours. The medium was replaced with fresh KBM, 10 μl of corn oil containing pulegone at various concentrations were added and cells were allowed to incubate (for 4 hours at 37° C.) before 2 μCi of ^3H 2-deoxy-glucose (Amersham, UK) were added to each well. Samples were then incubated for one hour. The medium was aspirated and wells were rinsed three times with PBS before the addition of 500 μL of 0.1N NaOH/well. After 10 minutes of agitation on a shaker, a 25 μL aliquot was removed for protein analysis, and 200 μL were transferred to a scintillation vial containing 5 mL Scintillation cocktail (Scintiverse) and counting was performed on a Beckman counter. ^3H-Glucose uptake results were expressed as CPM/μg protein.
as §2

[3] = test system: human keratinocytes; experiment: Transglutaminase (TG-1) Assay; details: for TG-1/DNA % of CONTROL / TG-1/DNA (Absorbance/Arbitrary Units of DNA ± Standard Deviation): three days
Experimental: as §1
A sample of the keratinocytes grown in the keratinocyte culture described above, were placed in KGM (2 ml per well) at 0.2 million cells/plate in 6-well plates and re-grown for five days until the cells reached approximately […], since TG-1 only begins to become expressed after confluence. […] One set of triplicate wells was left untreated to serve as control. After three days of incubation, cells were washed thoroughly with phosphate buffered saline (PBS, 10 mM sodium phosphate, 138 mM sodium chloride, 2.7 mM potassium chloride, pH 7.4) and placed at −70° C. for 2 hours. Cells were then thawed for two hours. The DNA content of cells was quantified by using the DNA-binding fluorophore, bis-benzimidazole (Hoechst 33258) and measuring the specific fluorescence of the DNA-bound fluorophore (360 nm excitation, 450 nm emission). Cellular TG-1 levels were determined by using a transglutaminase-1 (TG-1) specific monoclonal antibody as the primary antibody (BC1, Amersham, UK) and a peroxidase labeled rabbit antimouse IgG as the secondary antibody (Amersham, UK). The plates were blocked at room temperature with 5% nonfat milk in Tris-buffered saline (TBS, 10 mM Tris, 150 mM NaCL, pH 8.0) for one hour followed by two hours incubation with the primary antibody (1:4000 dilution) in 1% milk/TBS at room temperature. After rinsing the plates three times with 1% milk/TBS containing 0.05% Tween 20 (Bio-Rad, Hercules, Calif.), the plates were incubated with a 1:4000 dilution of the secondary antibody at room temperature for two hours. The plates were then rinsed three times with 1% milk/0.05% Tween 20/TBS and three times with PBS. Color was developed by incubation with o-phenylene-diamine (Sigma, St. Louis, Mo.) and hydrogen peroxide (Sigma) dissolved in a 1:1 mixture of 0.2 M dibasic sodium phosphate (Sigma) and 0.1 M citric acid at pH 5.0(Sigma). Solutions were transferred to 4 mL plastic cuvets (Fisher Scientific, Pittsburgh, Pa.) and the absorbance was read at 492 nm on an Ultraspec 3000 spectrophotometer (Pharmacia, Piscataway, N.J.) and TG-1 levels were expressed as absorbence/DNA fluoroscence.
as §2

[4] = pulegone 1% in corn oil droplet
[5] = pulegone 2.5% in corn oil droplet
[6] = pulegone 5% in corn oil droplet

`CC(C)=C1CCC(C)CC1=O` (stereo not shown) [Pulegone, 5-Methyl-2-(1-methylethylidene)cyclohexanone] was tested, and the “CERAMIDES % of CONTROL” value [1, 4] was 65%, the “CERAMIDES (ng/μg PROTEIN ± S.D.)” value [1, 4] was 8.97 ± 1.17 ng/μg PROTEIN and the “CERAMIDES % of CONTROL” value [1, 5] was 171%. For the same compound, the “CERAMIDES (ng/μg PROTEIN ± S.D.)” value [1, 5] was 23.8 ± 11.0 ng/μg PROTEIN, the “CERAMIDES % of CONTROL” value [1, 6] was 308% and the “CERAMIDES (ng/μg PROTEIN ± S.D.)” value [1, 6] was 42.8 ± 6.91 ng/μg PROTEIN. For the same compound, the “expression of ceramides in comparison to untreated keratinocytes” value ([1]; pulegone in corn oil) was “increased expression of ceramides”, the “GLUCOSE UPTAKE % of CONTROL” value [2, 4] was 77% and the “GLUCOSE UPTAKE (cpm/μg PROTEIN ± S.D.)” value [2, 4] was 3.71 ± 0.35 cpm/μg PROTEIN. For the same compound, the “GLUCOSE UPTAKE % of CONTROL” value [2, 6] was 189%, the “GLUCOSE UPTAKE (cpm/μg PROTEIN ± S.D.)” value [2, 6] was 9.14 ± 0.69 cpm/μg PROTEIN and the glucose uptake ([2]; pulegone in corn oil) was “significantly increased glucose uptake”. For the same compound, the “TG-1/DNA % of CONTROL” value [3, 4] was 121%, the “TG-1/DNA (Absorbance/Arbitrary Units of DNA ± Standard Deviation)” value [3, 4] was 15.45 ± 2.32 Absorbance/Arbitrary Units of and the “TG-1/DNA % of CONTROL” value [3, 5] was 196%. The “TG-1/DNA (Absorbance/Arbitrary Units of DNA ± Standard Deviation)” value [3, 5] was 24.96 ± 4.85 Absorbance/Arbitrary Units of, the “TG-1/DNA % of CONTROL” value [3, 6] was 286% and the “TG-1/DNA (Absorbance/Arbitrary Units of DNA ± Standard Deviation)” value [3, 6] was 36.40 ± 0.89 Absorbance/Arbitrary Units of. For the same compound, the “transglutaminase-1 expression in comparison to untreated keratinocytes” value ([3]; pulegone at 2.5% and 5% in corn oil) was “increased transglutaminase-1 expression”.
